Results published in patent US9028845B2, “Chimeric immunomodulatory compounds and methods of using the same-IV” (Dynavax Technologies Corporation, priority 2001, dated 2015).

What was measured:
CD19+ B cells = experiment: Human B cell proliferation assay (3H-thymidine incorporation)
human PBMCs = experiment: Human PBMC cytokine response assay (IFN-γ and IFN-α in cell-free medium by ELISA), with or without cPLGA; format: cell-based;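 on IFN-α (pg/ml) mean: 20 µg/mL compound for 24 hours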;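 on IFN-γ (pg/ml) mean: 20 µg/mL compound for 24 hours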
PBMCs = experiment: Human PBMC proliferation assay (3H-thymidine incorporation); format: cell-based; conditions: Experiment A; for mean cpm: 2 μg/ml
[1] = Table 24, mean of donors 28234-28237
[2] = Table 25, mean of donors 28250-28253
[3] = B cells, Donor 146, 2 μg/ml, Experiment A
[4] = B cells, Donor 147, 2 μg/ml, Experiment A
[5] = donor 28066, 20 ug/ml, 24 h, + PLGA = premixed with 100 μg/ml cPLGA
[6] = donor 28067, 20 ug/ml, 24 h, + PLGA = premixed with 100 μg/ml cPLGA
[7] = donor 28068, 20 ug/ml, 24 h, + PLGA = premixed with 100 μg/ml cPLGA
[8] = mean of donors 28065-28068, 20 ug/ml, 24 h, + PLGA = premixed with 100 μg/ml cPLGA

## (5′-TCGACGT-3′-HEG)2-glycerol-HEG-5′-TCGACGT-3′ [Compound C-101]
CD19+ B cells; purified human B cells, 5 μg/ml, 96 h
  B cell proliferation (FIG. 11), in words: induce very little B cell proliferation
Human PBMCs; Example 58, 0.8 ug/ml, donor 1
  IFN-α: 52 pg/mL
Human PBMCs; Example 58, 0.8 ug/ml, donor 2
  IFN-α: 52 pg/mL
Human PBMCs; Example 58, 0.8 ug/ml, donor 3
  IFN-α: 52 pg/mL
Human PBMCs; Example 58, 0.8 ug/ml, donor 4
  IFN-α: 52 pg/mL
Human PBMCs; Example 58, 0.8 ug/ml, mean of four individuals
  IFN-α mean: 52 pg/mL
Human PBMCs; Example 58, 4 ug/ml, donor 1
  IFN-α: 52 pg/mL
Human PBMCs; Example 58, 4 ug/ml, donor 2
  IFN-α: 52 pg/mL
Human PBMCs; Example 58, 4 ug/ml, donor 3
  IFN-α: 59 pg/mL
Human PBMCs; Example 58, 4 ug/ml, donor 4
  IFN-α: 204 pg/mL
Human PBMCs; Example 58, 4 ug/ml, mean of four individuals
  IFN-α mean: 92 pg/mL
Human PBMCs; Example 58, 20 ug/ml, donor 1
  IFN-α: 2330 pg/mL
Human PBMCs; Example 58, 20 ug/ml, donor 2
  IFN-α: 109 pg/mL
Human PBMCs; Example 58, 20 ug/ml, donor 3
  IFN-α: 215 pg/mL
Human PBMCs; Example 58, 20 ug/ml, donor 4
  IFN-α: 157 pg/mL
Human PBMCs; Example 58, 20 ug/ml, mean of four individuals
  IFN-α mean: 703 pg/mL
Human PBMCs; Example 59, 0.8 ug/ml, donor 48
  IFN-α: 102 pg/mL
Human PBMCs; Example 59, 0.8 ug/ml, donor 177
  IFN-α: 102 pg/mL
Human PBMCs; Example 59, 0.8 ug/ml, donor 272
  IFN-α: 185 pg/mL
Human PBMCs; Example 59, 0.8 ug/ml, donor 273
  IFN-α: 102 pg/mL
Human PBMCs; Example 59, 0.8 ug/ml, mean of four donors
  IFN-α mean: 123 pg/mL
Human PBMCs; Example 59, 4 ug/ml, donor 48
  IFN-α: 818 pg/mL
Human PBMCs; Example 59, 4 ug/ml, donor 177
  IFN-α: 3631 pg/mL
Human PBMCs; Example 59, 4 ug/ml, donor 272
  IFN-α: 604 pg/mL
Human PBMCs; Example 59, 4 ug/ml, donor 273
  IFN-α: 102 pg/mL
Human PBMCs; Example 59, 4 ug/ml, mean of four donors
  IFN-α mean: 1289 pg/mL
Human PBMCs; Example 59, 20 ug/ml, donor 48
  IFN-α: 2212 pg/mL
Human PBMCs; Example 59, 20 ug/ml, donor 177
  IFN-α: 4277 pg/mL
Human PBMCs; Example 59, 20 ug/ml, donor 272
  IFN-α: 642 pg/mL
Human PBMCs; Example 59, 20 ug/ml, donor 273
  IFN-α: 102 pg/mL
Human PBMCs; Example 59, 20 ug/ml, mean of four donors
  IFN-α mean: 1808 pg/mL
Human PBMCs; PBMCs from 8 donors, 20 μg/ml, 24 h
  IFN-α induction (FIG. 10), in words: induce high levels of IFN-α
Human PBMCs; Table 24, donor 28234
  IFN-α: 16 pg/mL
  IFN-γ: 14 pg/mL
Human PBMCs; Table 24, donor 28235
  IFN-α: 249 pg/mL
  IFN-γ: 205 pg/mL
Human PBMCs; Table 24, donor 28236
  IFN-α: 1354 pg/mL
  IFN-γ: 627 pg/mL
Human PBMCs; Table 24, donor 28237
  IFN-α: 8566 pg/mL
  IFN-γ: 2612 pg/mL
Human PBMCs; [1]
  IFN-α mean: 2546 pg/mL
  IFN-γ mean: 865 pg/mL
Human PBMCs; Table 25, donor 28250
  IFN-a: 540 pg/mL
Human PBMCs; Table 25, donor 28250, polynucleotides/spacers at amounts equivalent to the CIC, spacers alone 9 uM
  IFN-g: 224 pg/mL
Human PBMCs; Table 25, donor 28251
  IFN-a: 1472 pg/mL
  IFN-g: 63 pg/mL
Human PBMCs; Table 25, donor 28252
  IFN-a: 509 pg/mL
  IFN-g: 180 pg/mL
Human PBMCs; Table 25, donor 28253
  IFN-a: 2645 pg/mL
  IFN-g: 146 pg/mL
Human PBMCs; [2]
  IFN-a mean: 1291 pg/mL
  IFN-g mean: 153 pg/mL

## 5′-TGCTGC-3′-HEG-5′-AGCTTGC-3′-HEG-5′-AGATGAT-3′ [Compound M-1, reference compound]
CD19+ B cells; 2 μg/ml, 48 h plus 8 h 3H-thymidine pulse
  B cell proliferation, in words: little to no B cell proliferation
CD19+ B cells; [3]
  cpm1: 1514 cpm
  cpm2: 2815 cpm
  cpm3: 1173 cpm
CD19+ B cells; B cells, Donor 146 mean, 2 μg/ml, Experiment A
  mean cpm: 1834 cpm
CD19+ B cells; [4]
  cpm1: 1679 cpm
  cpm2: 1667 cpm
  cpm3: 1436 cpm
CD19+ B cells; B cells, Donor 147 mean, 2 μg/ml, Experiment A
  mean cpm: 1594 cpm
CD19+ B cells; B cells, mean of Donors 146 and 147, 2 μg/ml, Experiment A
  mean of both: 1714 cpm
Human PBMCs; Table 10, donor 28042
  IFN-α: 0 pg/mL
  IFN-γ: 45 pg/mL
Human PBMCs; Table 10, donor 28043
  IFN-α: 0 pg/mL
  IFN-γ: 29 pg/mL
Human PBMCs; Table 10, donor 28044
  IFN-α: 13 pg/mL
  IFN-γ: 7 pg/mL
Human PBMCs; Table 10, donor 28045
  IFN-α: 2 pg/mL
  IFN-γ: 3 pg/mL
Human PBMCs; Table 10, mean of donors
  IFN-α mean: 4 pg/mL
  IFN-γ mean: 21 pg/mL
Human PBMCs; donor 28065 (high background), 20 ug/ml, 24 h, + PLGA = premixed with 100 μg/ml cPLGA, 1000 = outside assay limits
  IFN-γ (pg/ml) 28065: 157 pg/mL
Human PBMCs; donor 28065, 20 ug/ml, 24 h, + PLGA = premixed with 100 μg/ml cPLGA
  IFN-α (pg/ml) 28065: 0 pg/mL
Human PBMCs; [5]
  IFN-α (pg/ml) 28066: 0 pg/mL
  IFN-γ (pg/ml) 28066: 1 pg/mL
Human PBMCs; [6]
  IFN-α (pg/ml) 28067: 3 pg/mL
  IFN-γ (pg/ml) 28067: 40 pg/mL
Human PBMCs; [7]
  IFN-α (pg/ml) 28068: 0 pg/mL
  IFN-γ (pg/ml) 28068: 2 pg/mL
Human PBMCs; [8]
  IFN-α (pg/ml) mean: 1 pg/mL
  IFN-γ (pg/ml) mean: 50 pg/mL
Human PBMCs; used alone (no cPLGA)
  immunomodulatory activity (IFN-γ / IFN-α secretion), in words: did not show activity
PBMCs; Donor 146, 2 μg/ml
  cpm1: 8753 cpm
  cpm2: 5203 cpm
  cpm3: 4496 cpm
PBMCs; Donor 146 mean
  mean cpm: 6151 cpm
PBMCs; Donor 147, 2 μg/ml
  cpm1: 1034 cpm
  cpm2: 3298 cpm
  cpm3: 1674 cpm
PBMCs; Donor 147 mean
  mean cpm: 2002 cpm
PBMCs; mean of Donors 146 and 147, 2 μg/ml
  mean of both: 4076 cpm
